The record followed here is paper PMC3603284 (Therapeutic drug monitoring, 2013).

Molecules are shown by their SMILES.

The data set can be described thus: Week 2 plasma trough protease inhibitor concentration. Further details: species or system human. Conditions: in vivo.

For `CC(C)CN(C[C@@H](O)[C@H](Cc1ccccc1)NC(=O)O[C@H]1CCOC1)S(=O)(=O)c1ccc(N)cc1` [amprenavir], for the setting “human, 2 weeks”, the “decrease in the mean trough concentration per C allele” value turned out to be 35%.
On to `CC(C)c1nc(CN(C)C(=O)N[C@H](C(=O)N[C@@H](Cc2ccccc2)C[C@H](O)[C@H](Cc2ccccc2)NC(=O)OCc2cncs2)C(C)C)cs1` [ritonavir], for which the “association of SLCO1B1 521T→C with week 2 trough concentration” value is “no significant association”. For the same compound, the “week 2 trough measures below the assay limit of quantification (200 ng/ml)” value (human, 2 weeks) stood at 86%.
Consider `CC(C)(C)NC(=O)[C@@H]1C[C@@H]2CCCC[C@@H]2CN1C[C@@H](O)[C@H](Cc1ccccc1)NC(=O)[C@H](CC(N)=O)NC(=O)c1ccc2ccccc2n1` [saquinavir], for which the “association of SLCO1B1 521T→C with week 2 trough concentration” value is “no significant association”.
